Source: ChEMBL document CHEMBL4428048, “Discovery of Novel Polo-Like Kinase 1 Polo-Box Domain Inhibitors to Induce Mitotic Arrest in Tumor Cells” (J Med Chem, 2016)
Each block holds one compound with its values, some of them ahead of it. Activity calls are given as the source filed them. No cut-off for these calls is given here.

How the values were obtained:
[1] = tested on: HeLa; assay: Induction of mitotic arrest in human HeLa cells assessed as increase in level of 4N DNA cells after 24 hrs by propidium iodide staining-based FACS analysis; assay type: functional, cell-based
[2] = tested on: RKO; assay: Growth inhibition of human RKO cells at 100 uM after 72 hrs by MTT assay relative to control; assay type: functional; settings: read-out: GI
[3] = tested on: U2OS; assay: Growth inhibition of human U2OS cells at 100 uM after 72 hrs by MTT assay relative to control; assay type: functional; settings: read-out: GI
[4] = tested on: HeLa; assay: Growth inhibition of human HeLa cells at 100 uM after 72 hrs by MTT assay relative to control; assay type: functional; settings: read-out: GI
[5] = tested on: HeLa; assay: Induction of mitotic arrest in human HeLa cells assessed as increase in level of 4N DNA cells at 30 uM after 24 hrs by propidium iodide staining-based FACS analysis; assay type: functional, cell-based
[6] = tested on: RKO; assay: cells; settings: Homo sapiens, 72 h
Description: Growth inhibition of human RKO cells after 72 hrs by MTT assay

[7] = target: Serine/threonine-protein kinase PLK2 (Homo sapiens, UniProt Q9NYY3); assay: Binding affinity to GST-tagged PLK2 PBD (355 to 685 residues) (unknown origin) by NT-647 dye-based microscale thermophoresis analysis
[8] = tested on: U2OS; assay: Growth inhibition of human U2OS cells at 50 uM after 72 hrs by MTT assay relative to control; assay type: functional; settings: read-out: GI
[9] = tested on: HeLa; assay: Growth inhibition of human HeLa cells at 50 uM after 72 hrs by MTT assay relative to control; assay type: functional; settings: read-out: GI
[10] = tested on: HeLa; assay: cells; settings: Homo sapiens, 72 h
Description: Growth inhibition of human HeLa cells after 72 hrs by MTT assay

[11] = tested on: HeLa; assay: Induction of mitotic arrest in human HeLa cells assessed as increase in level of 4N DNA cells at 5 uM after 24 hrs by propidium iodide staining-based FACS analysis; assay type: functional, cell-based
[12] = tested on: RKO; assay: Growth inhibition of human RKO cells at 20 uM after 72 hrs by MTT assay relative to control; assay type: functional; settings: read-out: GI
[13] = tested on: U2OS; assay: Growth inhibition of human U2OS cells at 20 uM after 72 hrs by MTT assay relative to control; assay type: functional; settings: read-out: GI
[14] = target: Serine/threonine-protein kinase PLK1 (Homo sapiens, UniProt P53350); assay: Binding affinity to GST-tagged PLK1 PBD (327 to 603 residues) (unknown origin) by NT-647 dye-based microscale thermophoresis analysis
[15] = target: Serine/threonine-protein kinase PLK1 (Homo sapiens, UniProt P53350, W414A); assay: Binding affinity to GST-tagged PLK1 PBD W414A mutant (unknown origin) by NT-647 dye-based microscale thermophoresis analysis
[16] = tested on: U2OS; assay: cells; settings: Homo sapiens, 72 h
Description: Growth inhibition of human U2OS cells after 72 hrs by MTT assay

[17] = tested on: HeLa; assay: Induction of mitotic arrest in human HeLa cells assessed as increase in level of 4N DNA cells at 40 uM after 24 hrs by propidium iodide staining-based FACS analysis; assay type: functional, cell-based
[18] = tested on: RKO; assay: Growth inhibition of human RKO cells at 50 uM after 72 hrs by MTT assay relative to control; assay type: functional; settings: read-out: GI
[19] = tested on: HeLa; assay: Induction of mitotic arrest in human HeLa cells assessed as increase in level of 4N DNA cells at 10 uM after 24 hrs by propidium iodide staining-based FACS analysis; assay type: functional, cell-based
[20] = tested on: HeLa; assay: Induction of mitotic arrest in human HeLa cells by propidium iodide staining-based FACS analysis; assay type: functional, cell-based
[21] = tested on: HeLa; assay: Induction of mitotic arrest in human HeLa cells assessed as 4N DNA cells at 100 uM after 24 hrs by propidium iodide staining-based FACS analysis relative to control; assay type: functional

Chain of Serine/threonine-protein kinase PLK2 (Q9NYY3 whole entry, the tested form may be a part): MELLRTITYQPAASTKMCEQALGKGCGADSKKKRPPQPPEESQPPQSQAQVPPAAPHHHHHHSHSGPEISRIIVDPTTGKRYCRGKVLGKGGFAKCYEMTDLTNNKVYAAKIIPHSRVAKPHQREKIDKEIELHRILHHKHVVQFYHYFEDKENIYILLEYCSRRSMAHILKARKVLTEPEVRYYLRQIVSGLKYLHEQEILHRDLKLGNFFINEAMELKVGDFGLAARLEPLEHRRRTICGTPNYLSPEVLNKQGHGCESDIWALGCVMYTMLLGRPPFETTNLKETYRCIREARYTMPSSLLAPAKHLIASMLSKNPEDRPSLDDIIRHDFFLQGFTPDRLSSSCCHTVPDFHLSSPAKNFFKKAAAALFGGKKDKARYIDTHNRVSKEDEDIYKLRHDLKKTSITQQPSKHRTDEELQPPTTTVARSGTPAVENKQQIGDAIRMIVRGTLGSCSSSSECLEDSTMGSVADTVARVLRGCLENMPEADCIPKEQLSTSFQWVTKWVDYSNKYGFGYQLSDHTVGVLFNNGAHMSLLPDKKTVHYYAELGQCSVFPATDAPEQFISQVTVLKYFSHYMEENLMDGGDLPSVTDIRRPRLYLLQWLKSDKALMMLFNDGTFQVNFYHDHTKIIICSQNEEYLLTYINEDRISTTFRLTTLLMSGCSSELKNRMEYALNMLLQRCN
Chain of Serine/threonine-protein kinase PLK1 (Homo sapiens, UniProt P53350, W414A) (P53350 2-603 W414A limits assumed): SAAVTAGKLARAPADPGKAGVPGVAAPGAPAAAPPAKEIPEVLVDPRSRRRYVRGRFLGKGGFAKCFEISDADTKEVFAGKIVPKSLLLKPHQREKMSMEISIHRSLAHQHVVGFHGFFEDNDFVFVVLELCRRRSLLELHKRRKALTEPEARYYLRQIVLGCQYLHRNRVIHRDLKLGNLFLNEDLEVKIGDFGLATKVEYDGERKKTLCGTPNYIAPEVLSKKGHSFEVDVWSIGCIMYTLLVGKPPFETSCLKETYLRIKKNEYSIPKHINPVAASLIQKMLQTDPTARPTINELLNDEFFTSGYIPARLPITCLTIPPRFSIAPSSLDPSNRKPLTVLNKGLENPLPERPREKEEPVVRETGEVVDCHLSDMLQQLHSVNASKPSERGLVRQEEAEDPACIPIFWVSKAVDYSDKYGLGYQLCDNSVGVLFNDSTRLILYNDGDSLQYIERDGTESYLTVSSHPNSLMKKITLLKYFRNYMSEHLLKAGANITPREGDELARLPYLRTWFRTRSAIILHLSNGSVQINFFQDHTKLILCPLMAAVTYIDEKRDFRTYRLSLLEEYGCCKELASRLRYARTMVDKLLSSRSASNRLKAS
Chain of Serine/threonine-protein kinase PLK1 (Homo sapiens, UniProt P53350) (P53350 whole entry, the tested form may be a part): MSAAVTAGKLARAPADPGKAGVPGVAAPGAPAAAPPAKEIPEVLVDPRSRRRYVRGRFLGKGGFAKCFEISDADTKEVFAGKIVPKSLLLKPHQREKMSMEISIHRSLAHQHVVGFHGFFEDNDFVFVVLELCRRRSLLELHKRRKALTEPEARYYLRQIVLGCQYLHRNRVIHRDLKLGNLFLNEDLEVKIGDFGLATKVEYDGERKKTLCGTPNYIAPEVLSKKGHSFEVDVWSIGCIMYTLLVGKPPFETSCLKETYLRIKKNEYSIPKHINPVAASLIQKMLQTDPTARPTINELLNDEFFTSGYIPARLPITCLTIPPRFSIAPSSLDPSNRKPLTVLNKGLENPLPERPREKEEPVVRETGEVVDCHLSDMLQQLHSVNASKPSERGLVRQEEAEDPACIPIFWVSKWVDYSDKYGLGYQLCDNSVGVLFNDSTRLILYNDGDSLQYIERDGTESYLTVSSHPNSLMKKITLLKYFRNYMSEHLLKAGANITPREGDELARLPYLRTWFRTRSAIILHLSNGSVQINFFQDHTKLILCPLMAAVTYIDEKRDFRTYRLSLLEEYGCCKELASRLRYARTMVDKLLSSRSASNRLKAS

Compound: Cc1ccc2nc(C)cc(SCC(=O)N/N=C/c3ccc(Cl)cc3)c2c1
EC50 [1]: 18.7 µM | inhibition of growth at 100 µM [2]: 34% | inhibition of growth at 100 µM [3]: 25.5% | inhibition of growth at 100 µM [4]: 36.7% | Activity [5]: Active

Compound: O=C(CCn1c2ccccc2c2ccccc21)N/N=C/c1cc(Cl)cc(Cl)c1
EC50 [6]: 19.2 µM | Kd [7]: 210 µM | EC50 [1]: 20.4 µM | Activity [5]: Active | inhibition of growth at 50 µM [8]: 48.8% | inhibition of growth at 50 µM [9]: 45.7%

Compound: Cc1ccc(/C(=N/S(=O)(=O)c2ccccc2)NC(=S)Nc2ccc([N+](=O)[O-])cc2)cc1
Kd [7]: 159 µM | Activity [1]: Dose-dependent effect | EC50 [1]: 21.1 µM | Activity [5]: Active

Compound: O=C(N/N=C/c1ccc(Br)cc1)c1n[nH]c2c1CCCC2
EC50 [10]: 2.6 µM | Activity [11]: Active | inhibition of growth at 20 µM [12]: 37% | inhibition of growth at 20 µM [13]: 59.8%

Compound: CCn1c2ccccc2c2cc(/C=N/NC(=O)c3ccccc3[N+](=O)[O-])ccc21
EC50 [10]: 15 µM | EC50 [1]: 5.3 µM | Activity [19]: Active | inhibition of growth at 50 µM [18]: 43% | inhibition of growth at 50 µM [8]: 41.7%

Compound: CCc1ccc(/C=N/NC(=O)c2sc3cc(Cl)ccc3c2Cl)s1
EC50 [1]: 8.6 µM | Activity [5]: Active

Compound: CCn1c2ccccc2c2cc(/C=N/NC(=O)c3cccc(Cl)c3)ccc21
EC50 [10]: 15.6 µM | EC50 [6]: 10 µM | EC50 [1]: 4.4 µM | Activity [19]: Active | inhibition of growth at 50 µM [8]: 42.2%

Compound: CCN(CC)c1ccc(NC(=O)/C=C/c2cccc3ccccc23)cc1
Activity [5]: Active | inhibition of growth at 50 µM [18]: 34% | EC50 [16]: 18.1 µM | inhibition of growth at 50 µM [9]: 31.2%

Continued, in another order:

Kd [14]: 44.2 µM | Kd [7]: 197 µM | EC50 [1]: 25.6 µM | Kd [15]: 412 µM | EC50 [16]: 37.8 µM
Compound: Cc1ccccc1OCC(=O)N/N=C/c1ccc2c(c1)OCCO2
inhibition of growth at 100 µM [2]: 35.3% | inhibition of growth at 100 µM [4]: 40.2% | Activity [5]: Active

EC50 [1]: 44.8 µM
Compound: CCCc1oc2ccc(NS(=O)(=O)c3cccs3)cc2c1C(=O)OCC
Activity [17]: Active | inhibition of growth at 50 µM [18]: 39.4% | inhibition of growth at 50 µM [9]: 31.8%

EC50 [20]: 15 µM
Compound: CC1=C/C(=N/OC(=O)c2ccccc2C)C(C)=CC1=O

Kd [7]: 87.3 µM
Compound: CC1=CC(=O)C(C(C)C)=C/C1=N/OC(=O)c1ccccc1C
Activity [21]: 36%
